For 27 compounds, IC50 results are on record in US9029391B2 (priority 2011, dated 2015).

Structures are written as SMILES. pIC50: −log10 of the molar value.

The subject of this assay is HIV. The assay can be described thus: MT4 Assay (anti-HIV activity). The assay is classed as cell-based. Conditions: Human immunodeficiency virus 1, 96 h, read-out: HIV MT4 Assay IC50, HTLV-1 transformed cell line MT-4, cell titer glo, 10 point dose response curve. The gist of the method: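 IC50 values were fitted to 10-point dose-response series (3-4-fold dilutions, range >1000-fold), normalized to no-compound control. CellTiter-Glo read-out was taken after 96 hours in HTLV-1-transformed MT-4 cells. Cytotoxicity was measured in parallel under identical conditions.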
For orientation: Cellular ATP, detected with luciferase, serves as a proxy for viable cell number.
As for `Cc1c(-c2c(C(OC(C)(C)C)C(=O)O)n(C)c(=O)c3cc(OC(F)F)ccc23)ccc2c1CCCO2` (stereo not drawn) [Example 114, 2-(tert-butoxy)-2-[7-(difluoromethoxy)-2-methyl-4-(5-methyl-3,4-dihydro-2H-1-benzopyran-6-yl)-1-oxo-1,2-dihydroisoquinolin-3-yl]acetic acid], the negative logarithm of the IC50 (pIC50) (usually the negative decadic logarithm of the IC50, by convention in mol/L) was 6.38.

Regarding `Cc1nc(COc2ccc3c(-c4cc(F)c5c(c4C)CCCO5)c(C(OC(C)(C)C)C(=O)O)n(C)c(=O)c3c2)c(C)o1` (stereo not drawn) [Example 133, 2-(tert-butoxy)-2-{7-[(dimethyl-1,3-oxazol-4-yl)methoxy]-4-(8-fluoro-5-methyl-3,4-dihydro-2H-1-benzopyran-6-yl)-2-methyl-1-oxo-1,2-dihydroisoquinolin-3-yl}acetic acid], the pIC50 was 6.03.

As for `Cc1c(-c2c([C@H](OC(C)(C)C)C(=O)O)n(C)c(=O)c3cc(-c4cnn(CCC(C)C)c4)ccc23)cc(F)c2c1CCCO2` (atropisomer, axis not shown; (M)) [Example 201, (2S)(M)-[(1,1-dimethylethyl)oxy]{4-(8-fluoro-5-methyl-3,4-dihydro-2H-chromen-6-yl)-2-methyl-7-[1-(3-methylbutyl)-1H-pyrazol-4-yl]-1-oxo-1,2-dihydro-3-isoquinolinyl}ethanoic acid], the pIC50 is 7.40.

As for `Cc1c(-c2c(C(OC(C)(C)C)C(=O)O)n(C)c(=O)c3cc(OCCO)ccc23)ccc2c1CCCO2` (stereo not drawn) [Example 4, tert-Butoxy-[7-(2-hydroxy-ethoxy)-2-methyl-4-(5-methyl-chroman-6-yl)-1-oxo-1,2-dihydro-isoquinolin-3-yl]-acetic acid], the pIC50 was 5.43.

Take `Cc1c(-c2c([C@H](OC(C)(C)C)C(=O)O)n(C)c(=O)c3cc(-c4cn[nH]c4)ccc23)cc(F)c2c1CCCO2` (atropisomer, axis not shown; (M)) [Example 197, (2S)(M)-[(1,1-dimethylethyl)oxy][4-(8-fluoro-5-methyl-3,4-dihydro-2H-chromen-6-yl)-2-methyl-1-oxo-7-(1H-pyrazol-4-yl)-1,2-dihydro-3-isoquinolinyl]ethanoic acid]: the pIC50 was 5.84.

With `Cc1c(-c2c([C@H](OC(C)(C)C)C(=O)O)n(C)c(=O)c3cc(CCc4ccccc4)ccc23)cc(F)c2c1CCCO2` (atropisomer, axis not shown; (M)) [Example 176, (2S)(M)-[(1,1-dimethylethyl)oxy][4-(8-fluoro-5-methyl-3,4-dihydro-2H-chromen-6-yl)-2-methyl-1-oxo-7-(2-phenylethyl)-1,2-dihydro-3-isoquinolinyl]ethanoic acid], the pIC50 is 7.30.

`Cn1c(C(OC(C)(C)C)C(=O)O)c(-c2ccc3c(c2Cl)NCCO3)c2ccccc2c1=O` (stereo not drawn) [Example 86, 2-(tert-butoxy)-2-[4-(5-chloro-3,4-dihydro-2H-1,4-benzoxazin-6-yl)-2-methyl-1-oxo-1,2-dihydroisoquinolin-3-yl]acetic acid]: the pIC50 was 5.36.

With `COc1cc2c(=O)n(C)c(C(OC(C)(C)C)C(=O)O)c(-c3ccc4c(c3C)CCCO4)c2cc1C` (stereo not drawn) [Example 120, 2-(tert-butoxy)-2-[7-methoxy-2,6-dimethyl-4-(5-methyl-3,4-dihydro-2H-1-benzopyran-6-yl)-1-oxo-1,2-dihydroisoquinolin-3-yl]acetic acid], the pIC50 is 6.64.

As to `Cc1c(-c2c(C(OC(C)(C)C)C(=O)O)n(C)c(=O)c3cc(OS(=O)(=O)N(C)C)ccc23)ccc2c1CCCO2` (stereo not drawn) [Example 123, 2-(tert-butoxy)-2-{7-[(dimethylsulfamoyl)oxy]-2-methyl-4-(5-methyl-3,4-dihydro-2H-1-benzopyran-6-yl)-1-oxo-1,2-dihydroisoquinolin-3-yl}acetic acid], the negative-log IC50 (pIC50) was 5.91.

Turning to `COCCOc1ccc2c(-c3ccc4c(c3C)CCCO4)c(C(OC(C)(C)C)C(=O)O)n(C)c(=O)c2c1` (stereo not drawn) [Example 81, 2-(tert-butoxy)-2-[7-(2-methoxyethoxy)-2-methyl-4-(5-methyl-3,4-dihydro-2H-1-benzopyran-6-yl)-1-oxo-1,2-dihydroisoquinolin-3-yl]acetic acid], the pIC50 is 6.36.

Take `Cc1c(-c2c(C(OC(C)(C)C)C(=O)O)n(C)c(=O)c3cc(C(F)(F)F)ccc23)ccc2c1CCCO2` (stereo not drawn) [Example 127, 2-(tert-butoxy)-2-[2-methyl-4-(5-methyl-3,4-dihydro-2H-1-benzopyran-6-yl)-1-oxo-7-(trifluoromethyl)-1,2-dihydroisoquinolin-3-yl]acetic acid]: the pIC50 was 5.94.

With `Cn1c(C(OC(C)(C)C)C(=O)O)c(-c2ccc3c(c2)CCCO3)c2ccc(Cl)cc2c1=O` (stereo not drawn) [Example 68, 2-(tert-butoxy)-2-[7-chloro-4-(3,4-dihydro-2H-1-benzopyran-6-yl)-2-methyl-1-oxo-1,2-dihydroisoquinolin-3-yl]acetic acid], the pIC50 was 5.61.

Turning to `Cc1c(-c2c(C(OC(C)(C)C)C(=O)O)n(C)c(=O)c3cc(OCc4cccc(F)c4)ccc23)ccc2c1CCCO2` (stereo not drawn) [Example 104, 2-(tert-butoxy)-2-{7-[(3-fluorophenyl)methoxy]-2-methyl-4-(5-methyl-3,4-dihydro-2H-1-benzopyran-6-yl)-1-oxo-1,2-dihydroisoquinolin-3-yl}acetic acid], the pIC50 was 7.22.

Take `COc1c(C)cc(-c2c(C(OC(C)(C)C)C(=O)O)n(C)c(=O)c3ccccc23)cc1C` (stereo not drawn) [Example 1, tert-Butoxy-[4-(4-methoxy-3,5-dimethyl-phenyl)-2-methyl-1-oxo-1,2-dihydro-isoquinolin-3-yl]-acetic acid]: the pIC50 was 5.18.

`Cn1c(C(OC(C)(C)C)C(=O)O)c(-c2ccc(Cl)c(Cl)c2)c2ccccc2c1=O` (stereo not drawn) [Example 11, 2-(tert-butoxy)-2-[4-(3,4-dichlorophenyl)-2-methyl-1-oxo-1,2-dihydroisoquinolin-3-yl]acetic acid]: the pIC50 was 4.83.

Consider `Cn1c(C(OC(C)(C)C)C(=O)O)c(-c2ccc3ncccc3c2)c2ccccc2c1=O` (stereo not drawn) [Example 62, 2-(tert-butoxy)-2-[2-methyl-1-oxo-4-(quinolin-6-yl)-1,2-dihydroisoquinolin-3-yl]acetic acid], for which the negative logarithm of the IC50 (pIC50) was 4.95.

With `Cc1c(-c2c([C@H](OC(C)(C)C)C(=O)O)n(C)c(=O)c3cc(N4CCS(=O)(=O)CC4)ccc23)cc(F)c2c1CCCO2` (atropisomer, axis not shown; (M)) [Example 167, (2S)(M)-[(1,1-dimethylethyl)oxy][7-(1,1-dioxido-4-thiomorpholinyl)-4-(8-fluoro-5-methyl-3,4-dihydro-2H-chromen-6-yl)-2-methyl-1-oxo-1,2-dihydro-3-isoquinolinyl]ethanoic acid], the pIC50 is 5.43.

In the case of `Cc1c(-c2c([C@H](OC(C)(C)C)C(=O)O)n(C)c(=O)c3cc(OCc4ccc(F)c(F)c4)ccc23)ccc2c1CCCO2` [Example 108, (2S)-2-(tert-butoxy)-2-{7-[(3,4-difluorophenyl)methoxy]-2-methyl-4-(5-methyl-3,4-dihydro-2H-1-benzopyran-6-yl)-1-oxo-1,2-dihydroisoquinolin-3-yl}acetic acid], the pIC50 was 7.52.

With `Cc1c(-c2c([C@H](OC(C)(C)C)C(=O)O)n(C)c(=O)c3cc(OCc4ccc(F)cc4F)ccc23)ccc2c1CCCO2` [Example 148, (2S)-2-(tert-butoxy)-2-{7-[(2,4-difluorophenyl)methoxy]-2-methyl-4-(5-methyl-3,4-dihydro-2H-1-benzopyran-6-yl)-1-oxo-1,2-dihydroisoquinolin-3-yl}acetic acid], the pIC50 was 7.30.

On to `Cc1c(-c2c(C(OC(C)(C)C)C(=O)O)n(C)c(=O)c3cc(OCCN(C)C)ccc23)ccc2c1CCCO2` (stereo not drawn) [Example 85, 2-(tert-butoxy)-2-{7-[2-(dimethylamino)ethoxy]-2-methyl-4-(5-methyl-3,4-dihydro-2H-1-benzopyran-6-yl)-1-oxo-1,2-dihydroisoquinolin-3-yl}acetic acid], for which the pIC50 was 5.12.

For `Cn1c(C(OC(C)(C)C)C(=O)O)c(-c2ccc(F)cc2F)c2ccccc2c1=O` (stereo not drawn) [Example 46, 2-(tert-butoxy)-2-[4-(2,4-difluorophenyl)-2-methyl-1-oxo-1,2-dihydroisoquinolin-3-yl]acetic acid], the pIC50 is 5.80.

Take `CC(C)(C)OC(C(=O)O)c1c(-c2ccc3c(c2)CCCO3)c2ccccc2c(=O)n1C1CC1` (stereo not drawn) [Example 30, 2-(tert-butoxy)-2-[2-cyclopropyl-4-(3,4-dihydro-2H-1-benzopyran-6-yl)-1-oxo-1,2-dihydroisoquinolin-3-yl]acetic acid]: the pIC50 was 4.42.

With `Cn1c(C(OC(C)(C)C)C(=O)O)c(-c2ccc3c(c2)OCCC3)c2ccccc2c1=O` (stereo not drawn) [Example 36, 2-(tert-butoxy)-2-[4-(3,4-dihydro-2H-1-benzopyran-7-yl)-2-methyl-1-oxo-1,2-dihydroisoquinolin-3-yl]acetic acid], the pIC50 is 4.82.

For the compound `Cc1ccc(-c2c(C(OC(C)(C)C)C(=O)O)n(C)c(=O)c3cc(CN4CCOCC4)ccc23)cc1C` (stereo not drawn) [Example 181], the pIC50 was 6.57.

`Cc1ccc(-c2c(C(OC(C)(C)C)C(=O)O)n(C)c(=O)c3cc(CNCc4ccc5c(-c6ccc(C)c(C)c6)c(C(OC(C)(C)C)C(=O)O)n(C)c(=O)c5c4)ccc23)cc1C` (stereo not drawn) [Example 180, 2,2′-(iminobis{methanediyl[4-(3,4-dimethylphenyl)-2-methyl-1-oxo-1,2-dihydroisoquinoline-7,3-diyl]})bis{[(1,1-dimethylethyl)oxy]acetic acid}]: the pIC50 is 4.91.

As to `COc1ccc2c(-c3cc(F)c4c(c3C)CCCO4)c(C(OC(C)(C)C)C(=O)O)n(C)c(=O)c2c1` (stereo not drawn) [Example 125, 2-(tert-butoxy)-2-[4-(8-fluoro-5-methyl-3,4-dihydro-2H-1-benzopyran-6-yl)-7-methoxy-2-methyl-1-oxo-1,2-dihydroisoquinolin-3-yl]acetic acid], the pIC50 is 6.49.

Take `Cc1c(-c2c(C(OC(C)(C)C)C(=O)O)n(C)c(=O)c3c(F)cccc23)ccc2c1CCCO2` (stereo not drawn) [Example 83, 2-(tert-butoxy)-2-[8-fluoro-2-methyl-4-(5-methyl-3,4-dihydro-2H-1-benzopyran-6-yl)-1-oxo-1,2-dihydroisoquinolin-3-yl]acetic acid]: the pIC50 was 6.30.
